Experimental data reported in patent US11224627B2, “Method for culturing cells of Acrochaetium moniliforme red algae, method for obtaining an extract of the biomass thereof, and use of same in cosmetics” (SOCIETE D'EXPLOITATION DE PRODUITS POUR LES INDUSTRIES …, priority 2016, dated 2022).
Marks after values point to notes of the source that are not given here.

Experiments:
[1] = tested on: Human fibroblasts of the dermal follicular papilla; test: Viability measured using WST-8 reagent; type: cell-based; settings: 2 μM
[2] = tested on: 5-α-reductase enzyme; test: Production of dihydrotestosterone (DHT) from testosterone in a cellular model, revealing 5-α-reductase activity; type: cell-based, human; settings: 2 μM
Procedure: This model is a cellular model, that is more robust than models on purified enzyme.
Human fibroblasts of the dermal follicular papilla (person) were seeded into collagen-coated culture plates in the presence of a specific growth medium. After three days, they were pretreated for 24 hours with the positive reference [Finasteride (F) at 2 μM and 1 μM] and each of the algal extracts to be tested (Table 2). The fibroblasts were then stimulated with testosterone at 0.5 μM before undergoing a post-treatment for 24 hours. Each test was carried out in sextuplicate.
The viability was measured using a WST-8 reagent and the conversion of the testosterone was then evaluated by measuring the intracellular concentration of (DHT). The viability was expressed relative to that of the control without testosterone (control T0). The amount of (DHT) was standardized relative to the viability results and then related to the control condition with testosterone (0.5 μM) control (T1) in order to calculate a percentage effect, and also related to the control conditions without testosterone in order to calculate a percentage protection.

SMILES: CC(C)(C)NC(=O)[C@H]1CC[C@H]2[C@@H]3CC[C@H]4NC(=O)C=C[C@]4(C)[C@H]3CC[C@]12C [F, Finasteride]
- WST-8 OD (AU) ([1]; fibroblasts stimulated with testosterone 0.5 μM, 24 h pre- and 24 h post-treatment): 2.19 +/− 0.27^(a) AU
- WST-8 Viability ([1]; relative to control without testosterone (T0)): 93%^(a)
- DHT Standardized concentration (pg/ml/AU) ([2]; DHT standardized relative to viability (WST-8 OD)): 5.68 +/− 0.91^(a) pg/ml/AU
- DHT Concentration (pg/ml) ([2]; intracellular DHT, testosterone 0.5 μM): 12.38 +/− 2.35^(a) pg/ml
- DHT Restoration ([2]; related to control without testosterone (T0 = 100%, T1 = 0%)): 46%*
- DHT Effect ([2]; relative to control with testosterone 0.5 μM (T1)): −28%*
